Data on two molecules can be found in PubChem BioAssay AID1745844 (Carcinogenic Potency Database (CPDB), 2022).

The term TD50 denotes the 50% point of the dose-response relation for the toxic effect studied.

The series relates to rodent lifetime carcinogenesis bioassay, tumor incidence TD50. Kind of series: carcinogenic potency in animals, long-term in vivo studies, CPDB compilation (AID 1745844).

Activity calls are given as the source filed them. The rule behind the calls is not given here.

In the case of `Nc1ccc(-c2ccc(N)c(Cl)c2)cc1Cl`, the carcinogen call reads like this: (dog, strain Beagle, females, given by capsule, site: liver, lesion: several types, types named in the paper, dosed 369 weeks, study length 370 weeks) “positive”; (dog, strain Beagle, females, given by capsule, site: urinary bladder, lesion: several types, types named in the paper, dosed 369 weeks, study length 370 weeks) “positive”; (mouse, strain ICR/Jcl, males, in feed, site: liver, lesion: hepatoma, dosed 52 weeks, study length 52 weeks) “positive”; (rat, strain Charles River CD (Sprague-Dawley), females, in feed, site: liver, lesion: one or several types, types not named, dosed 69 weeks, study length 69 weeks) “negative (inactive)”; (rat, strain Charles River CD (Sprague-Dawley), males, in feed, site: liver, lesion: one or several types, types not named, dosed 69 weeks, study length 69 weeks) “negative (inactive)”. Further, the TD50 was 18.3 mg/kg/day (rat, strain Charles River CD (Sprague-Dawley), females, in feed, site: mammary gland, lesion: adenocarcinoma, dosed 69 weeks, study length 69 weeks); 60.1 mg/kg/day (rat, strain Charles River CD (Sprague-Dawley), males, in feed, site: Zymbal's gland, lesion: squamous-cell carcinoma, dosed 69 weeks, study length 69 weeks); 66.2 mg/kg/day (rat, strain Charles River CD (Sprague-Dawley), males, in feed, site: all sites, lesion: granulocytic leukemia, dosed 69 weeks, study length 69 weeks); 69.6 mg/kg/day (rat, strain Charles River CD (Sprague-Dawley), males, in feed, site: mammary gland, lesion: adenocarcinoma, dosed 69 weeks, study length 69 weeks).
Take `CCCCNNCCCC`: the TD50 was 198 mg/kg/day (mouse, strain Swiss albino, females, in drinking water, site: all sites, lesion: malignant lymphoma, dosed 93 weeks, study length 93 weeks); 69.8 mg/kg/day (mouse, strain Swiss albino, females, in drinking water, site: lung, lesion: several types, types named in the paper, dosed 93 weeks, study length 93 weeks); 886 mg/kg/day (mouse, strain Swiss albino, males, in drinking water, site: all sites, lesion: malignant lymphoma, dosed 87 weeks, study length 87 weeks); 449 mg/kg/day (mouse, strain Swiss albino, males, in drinking water, site: kidney, lesion: several types, types named in the paper, dosed 87 weeks, study length 87 weeks); 34.5 mg/kg/day (mouse, strain Swiss albino, males, in drinking water, site: lung, lesion: several types, types named in the paper, dosed 87 weeks, study length 87 weeks). The carcinogen call reads like this: (mouse, strain Swiss albino, females, in drinking water, site: liver, lesion: angioma, dosed 93 weeks, study length 93 weeks) “negative (inactive)”; (mouse, strain Swiss albino, females, in drinking water, site: liver, lesion: angiosarcoma, dosed 93 weeks, study length 93 weeks) “negative (inactive)”; (mouse, strain Swiss albino, males, in drinking water, site: liver, lesion: angioma, dosed 87 weeks, study length 87 weeks) “negative (inactive)”; (mouse, strain Swiss albino, males, in drinking water, site: liver, lesion: angiosarcoma, dosed 87 weeks, study length 87 weeks) “negative (inactive)”.
